Measured values: US4518712A, “Piperazine derivative and analgesic composition containing the same” (priority 1980, dated 1985)
Structures can show the parent of a compound that is named as a salt.

Tests used:
[1] = test system: dd strain male mice; test: Analgesic activity test: modified Haffner method; format: in vivo; details: 30 min before 2 mg/kg morphine hydrochloride s.c., tail clamp, 95% confidence limits in parentheses; for ED50: Mus musculus
Description: (§1) The results of analgesic activity test and acute toxicity test performed on the compounds of this invention and aminopyrin as control are as described below.
Groups of each 10 dd strain male mice (about 19 g in body weight) were used for the test. Thirty minutes after the oral administration of the drug under test, 2 mg/kg of morphine hydrochloride was subcutaneously injected. After 15 minutes, the basal part of the mouse tail was clamped with Kocher's forcepts four times at each time interval of 15 minutes to observe the pain reaction of each mouse. The percentage effectiveness was calculated by the formula [formula] From the effectiveness data, the median effective dose (ED50) and its 95% confidence limits were calculated by the method of Litchfield-Wilcoxon.

[2] = Acute toxicity test; format: in vivo, mice; details: mouse, in vivo; oral, 72 hours of observation; dd strain male mice; 95% confidence limits in parentheses on the next line
Description: as §1
(§2) Groups of each 4-6 dd strain male mice (about 19 g in body weight) were used for the test. […] When the median lethal dose was not obtainable, the dose (mg/kg) and the ratio (number of dead animals)/(number of test animals) were shown in Table 2.

[3] = test system: dd strain male mice; test: Analgesic activity test: acetic acid-induced stretching method; format: in vivo; details: Mus musculus, oral, 30 min before 0.6% acetic acid i.p., 95% confidence limits in parentheses on the next line
Description: as §1
Groups of each 10 dd strain male mice (about 18 g in body weight) were used for the test. Each mouse was orally administered with the drug being tested. Thirty minutes after the administration, 0.1 ml/10 g of a 0.6% acetic acid solution was intraperitoneously injected. […] The percentage effectiveness was determined by the formula [formula] From the effectiveness data, the median effective dose (ED50) and its 95% confidence limits were calculated by the method of Litchfield-Wilcoxon.

[4] = test system: dd strain male mice; test: Acute toxicity test; format: in vivo; details: 72 hours
Description: as §1, §2

Structure (SMILES) | ED50 ([1]; po) | LD50 at 72 h [2] | ED50 [3] | Acute toxicity, (number of dead animals)/(number of test animals) ([4]; 100 mg/kg (so in the source) oral) | Acute toxicity, (number of dead animals)/(number of test animals) ([4]; 250 mg/kg oral) | Acute toxicity, (number of dead animals)/(number of test animals) ([4]; 500 mg/kg oral) | Acute toxicity, (number of dead animals)/(number of test animals) ([4]; 1000 mg/kg oral) | Analgesic activity, ED50, Haffner method ([1]; oral) | ED50 ([1]; oral)
Cc1c(N(C)C)c(=O)n(-c2ccccc2)n1C [Aminopyrin, aminopyrin, reference compound] | 65 mg/kg | 750 mg/kg | 63 mg/kg |  |  |  |  |  | 
Fc1ccccc1N1CCN(CC2CC2)CC1 [Compound 1] | 11 mg/kg |  | 12.6 mg/kg | 6/6 | 2/6 | 3/6 |  |  | 
Cl.Cl.Fc1ccc(N2CCN(CC3CC3)CC2)cc1 [Compound 2, 1-(cyclopropylmethyl)-4-(4-fluorophenyl)piperazine dihydrochloride] | 13.2 mg/kg |  | 9.4 mg/kg |  | 1/6 | 5/6 | 6/6 |  | 
Clc1cccc(N2CCN(CC3CC3)CC2)c1 [Compound 3] | 13.8 mg/kg |  |  |  | 0/6 | 2/6 | 6/6 |  | 
Clc1ccc(N2CCN(CC3CC3)CC2)cc1 [Compound 4] | 6.3 mg/kg |  | 17.9 mg/kg |  | 0/6 | 5/6 | 6/6 |  | 
Clc1ccc(N2CCN(CC3CC3)CC2)cc1Cl [Compound 5] | 7.2 mg/kg |  | 17.2 mg/kg |  | 0/6 | 2/6 | 6/6 |  | 
Cl.Cl.FC(F)(F)c1cccc(N2CCN(CC3CC3)CC2)c1 [Compound 6, 1-(cyclopropylmethyl)-4-(3-trifluoromethylphenyl)piperazine dihydrochloride] | 3.7 mg/kg |  | 2.8 mg/kg |  | 0/6 | 4/6 | 6/6 |  | 
FC(F)(F)c1cccc(N2CCN(CC3CC3)CC2)c1 [Compound 7] | 5.5 mg/kg |  |  |  | 0/6 | 2/6 | 6/6 |  | 
FC(F)(F)c1cccc(N2CCN(CC3CC3)CC2)c1 [Compound 9] |  |  |  |  | 0/6 | 3/6 | 6/6 | 4.9 mg/kg | 
FC(F)(F)c1cccc(N2CCN(CC3CC3)CC2)c1.O=C(O)CC(O)(CC(=O)O)C(=O)O [Compound 10, 1-(Cyclopropylmethyl)-4-(3-trifluoromethylphenyl)piperazine citrate] |  |  | 8.7 mg/kg |  | 0/6 | 2/6 | 6/6 |  | 2.5 mg/kg
FC(F)(F)c1cc(N2CCN(CC3CC3)CC2)ccc1Cl [Compound 11] | 5.8 mg/kg |  | 20.2 mg/kg |  | 0/6 | 5/6 | 6/6 |  | 
CC(C)N1CCN(c2cccc(C(F)(F)F)c2)CC1 [Compound 12, 1-(3-trifluoromethyl)-4-isopropylpiperazine dihydrochloride] | 4.9 mg/kg |  | 4.2 mg/kg |  | 0/6 | 6/6 | 6/6 |  | 
C=CCN1CCN(c2cccc(C(F)(F)F)c2)CC1.Cl.Cl [Compound 14, 1-Allyl-4-(3-trifluoromethylphenyl)piperazine dihydrochloride] | 7 mg/kg |  | 13.6 mg/kg |  | 0/6 | 4/6 | 6/6 |  | 
